# Source: patent US20220332700A1, “NOVEL APOPTOSIS SIGNAL-REGULATING KINASE 1 INHIBITORS” (MANKIND PHARMA LTD, priority 2019, published 2022)
# pIC50: −log10 of the molar value. Like-named read-outs stand apart in the source and are kept apart here.
# How the values were obtained:
# [1] = target: T1, recombinant ASK1 (Homo sapiens, UniProt Q99683); experiment: ASK1 Biochemical Assay (HTRF KinEASE-STK S3)
# T1 construct: purchased Carna Biosciences
# Method in brief: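 Recombinant ASK1 (5 ng) preincubated with compound 1 h at 23 °C in MOPS pH 7 buffer with Mg-acetate, DTT, NP40, glycerol, BSA and 1% DMSO. Inhibition calculated against vehicle after substrate-blank subtraction.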
# [2] = target: T2, Human ASK1 (Homo sapiens, UniProt Q99683); experiment: ASK1 Cell Based Assay (phospho p38 read out in hASK1 transfected HEK293T-AP1 cells)
# T2 construct: expressed in transfected cells; host or cells: HEK293T-AP1
# T2 sequence (Q99683 1-1374): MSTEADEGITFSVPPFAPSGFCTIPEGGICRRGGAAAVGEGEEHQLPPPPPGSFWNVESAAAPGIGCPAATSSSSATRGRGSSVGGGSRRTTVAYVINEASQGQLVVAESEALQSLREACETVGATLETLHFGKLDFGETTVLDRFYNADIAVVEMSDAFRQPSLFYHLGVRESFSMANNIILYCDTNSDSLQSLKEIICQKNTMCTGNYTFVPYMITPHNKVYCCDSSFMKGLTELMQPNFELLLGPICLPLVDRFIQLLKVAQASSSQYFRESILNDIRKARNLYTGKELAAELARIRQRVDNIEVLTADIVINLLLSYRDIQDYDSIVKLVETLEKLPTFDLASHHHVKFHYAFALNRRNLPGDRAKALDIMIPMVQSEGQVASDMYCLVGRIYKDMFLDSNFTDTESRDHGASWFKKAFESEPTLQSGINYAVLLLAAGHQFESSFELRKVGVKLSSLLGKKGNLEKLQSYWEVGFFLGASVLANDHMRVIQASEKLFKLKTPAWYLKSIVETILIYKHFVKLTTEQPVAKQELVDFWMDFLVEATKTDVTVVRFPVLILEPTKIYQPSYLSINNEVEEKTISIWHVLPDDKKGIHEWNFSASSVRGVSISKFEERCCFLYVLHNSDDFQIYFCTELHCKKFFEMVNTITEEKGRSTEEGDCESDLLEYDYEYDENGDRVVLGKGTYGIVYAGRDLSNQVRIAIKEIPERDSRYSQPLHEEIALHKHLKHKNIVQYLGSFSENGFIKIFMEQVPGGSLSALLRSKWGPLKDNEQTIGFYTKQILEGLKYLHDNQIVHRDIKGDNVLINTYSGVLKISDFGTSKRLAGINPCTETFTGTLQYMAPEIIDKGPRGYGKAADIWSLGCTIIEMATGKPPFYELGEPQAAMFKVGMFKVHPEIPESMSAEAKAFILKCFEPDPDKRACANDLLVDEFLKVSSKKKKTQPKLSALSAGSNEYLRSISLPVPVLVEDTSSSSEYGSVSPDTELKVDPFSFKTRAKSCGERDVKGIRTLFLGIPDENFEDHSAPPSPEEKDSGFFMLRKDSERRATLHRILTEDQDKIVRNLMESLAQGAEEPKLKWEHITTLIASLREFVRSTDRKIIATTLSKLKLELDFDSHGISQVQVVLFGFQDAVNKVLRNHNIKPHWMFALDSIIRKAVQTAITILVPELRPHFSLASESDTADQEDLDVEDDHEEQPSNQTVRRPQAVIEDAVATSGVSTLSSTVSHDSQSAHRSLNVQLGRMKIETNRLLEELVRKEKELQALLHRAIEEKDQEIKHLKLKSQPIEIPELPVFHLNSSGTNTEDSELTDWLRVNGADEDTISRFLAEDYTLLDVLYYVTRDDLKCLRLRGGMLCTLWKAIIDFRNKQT
# Method in brief: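 HEK293T-AP1 cells transfected with hASK1, after 24 h treated with compounds for 24 h (0.2% DMSO), then stimulated with 1 mM H2O2 for 1 h with compounds present.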
# [3] = tested on: Male C57BL/6 mice; experiment: Mouse model of Acetaminophen (APAP) induced Hepatotoxicity; type: in vivo; conditions: l0mpk and 30mpk; APAP 300 mg/kg i.p.; 6h post APAP; dose dependent, comparable with selonsertib
# Method: Male C57BL/6 mice, 20 to 24 grams body weight at the time of study initiation, were acclimatized at least for 1-3 days prior to experiment initiation. Based on body weight, animal were randomized to different groups and kept for overnight fasting. Animals were treated with test compounds and vehicle for control group. After 30 minutes, APAP (300 mg/kg) was administered by intraperitoneal route (i.p). A vehicle control group was also included in the study as a vehicle control for test compound as well as APAP. All animals were bled 6h post APAP administration from the retro-orbital plexus into appropriately labeled tubes. Serum ALT levels were measured in all groups.
# [4] = ATP 100 μM, read-out: Biochemical Assay IC50
# [5] = comparison with Selonsertib, read-out: ASK1 biochemical Assay (IC50)
# [6] = selectivity table, read-out: ASK1 Biochemical Assay IC50
# [7] = HEK293T-AP1 cells, 1 mM hydrogen peroxide, phospho p38, read-out: Cell Based Assay IC50
# [8] = comparison with Selonsertib, read-out: ASK1 ph. P38 Cell based Assay (IC50)
SMILES,"pIC50 [1, 4]","pIC50 [1, 5]","pIC50 [1, 6]","pIC50 [2, 7]","pIC50 [2, 8]",reduction in serum ALT levels compared to vehicle [3]
"CC(C)n1cnnc1-c1cccc(N2CCN(c3ccc(N4CCOCC4)cc3)C2=O)n1 [Example 1043, 1-(6-(4-isopropyl-4H-1,2,4-triazol-3-yl)pyridin-2-yl)-3-(4-morpholinophenyl)imidazolidin-2-one]",> 7.00,8.39,8.39,6.85,6.85,significant reduction
"CC(C)n1cnnc1-c1cccc(N2CCN(c3ccc(N4CC(C#N)C4)cc3)C2=O)n1 [Example 1071, 1-(4-(3-(6-(4-isopropyl-4H-1,2,4-triazol-3-yl)pyridin-2-yl)-2-oxoimidazolidin-1-yl)phenyl)azetidine-3-carbonitrile]",> 7.00,8.42,8.42,> 7.00,7.16,significant reduction
"CNC(=O)C1CCN(c2ccc(N3CCN(c4cccc(-c5nncn5C(C)C)n4)C3=O)cc2)CC1 [Example 1082, 1-(4-(3-(6-(4-isopropyl-4H-1,2,4-triazol-3-yl)pyridin-2-yl)-2-oxoimidazolidin-1-yl)phenyl)-N-methylpiperidine-4-carboxamide]",> 7.30,9.00,9.00,> 7.00,7.82,significant reduction
"CC(C)n1cnnc1-c1cccc(N2CCN(c3ccc(N4CCC(C(=O)N(C)C)CC4)cc3)C2=O)n1 [Example 1097, 1-(4-(3-(6-(4-isopropyl-4H-1,2,4-triazol-3-yl)pyridin-2-yl)-2-oxoimidazolidin-1-yl)phenyl)-N,N-dimethylpiperidine-4-carboxamide]",> 7.30,8.42,8.42,> 7.00,6.99,significant reduction
